Consider 2 molecules from US9822137B2, “Phosphonucleosides useful in the treatment of viral disorders” (UNIVERSITY COLLEGE CORK, priority 2012, dated 2017).

In brackets after ≈: the same amount, converted by molar mass.

The target in one data set is HIV-RT (Human immunodeficiency virus type 1 group M subtype B, UniProt P04585). As to conditions: cell-free HIV-RT assay, literature, not a direct comparison; cited from earlier work.
Data set [1] addresses HIV-1 reverse transcriptase (Human immunodeficiency virus type 1 group M subtype B, UniProt P04585). The experiment in a line: cell-free HIV-1 RT assay with artificial homopolymeric template/primer and [3H]dNTP. Format: biochemical. The procedure:
To prepare the template/primers for the RT experiments, 0.15 mM poly(U), poly(A), and poly(I) were mixed with an equal volume of 0.0375 mM oligo(dA), oligo(dT), and oligo(dC), respectively. The final concentrations of the templates in the RT reaction mixture were 0.015 mM. The reaction mixture (50 μl) contained 50 mM Tris.HCl (pH 7.8), 5 mM dithiothreitol, 300 mM glutathione, 500 μM EDTA, 150 mM KCl, 5 mM MgCl2, 1.25 μg of bovine serum albumin, an appropriate concentration of labeled (tritiated) substrate dTTP, dCTP, or dATP (2 μCi/assay), a fixed concentration of the template/primer poly(A).oligo(dT) (0.015 mM), poly(I).oligo(dC) (0.015 mM), and poly(U).oligo(dA) (0.015 mM), 0.06% Triton X-100, 10 μl of inhibitor solution (containing various concentrations of the compounds), and 1 μl of the RT preparation. The reaction mixtures were incubated at 37° C. for 30 min, at which time 100 μl of yeast RNA (1 mg/ml) and 1 ml of Na4P2O7 (0.02 M) in trichloroacetic acid (5% v/v) were added. The solutions were kept on ice for 30 min, after which the acid-insoluble material was washed and analyzed for radioactivity.

Data set [2] is described as follows: chemical stability on storage / in solution. The class given is physicochemical. As to conditions: sample checked after 1 year.

Consider `Cc1cn([C@H]2C[C@H](N=[N+]=[N-])[C@@H](CO)O2)c(=O)[nH]c1=O` [AZT], for which the “IC50 anti-HIV-RT activity reported by McClure” value at HIV-RT was 0.1 µg/mL (≈ 0.374 µM).
The IC50 is the concentration needed to halve the response being measured. Take `Nc1ncnc2c1ncn2[C@@H]1CC[C@H](OC(C(=O)O)P(=O)(O)O)C1` (relative stereo) [Compound 11d, cis-9-{4-[Carboxy(phosphono)methoxy]cyclopentan-1-yl}adenine]: the IC50 was 0.274 µM in data set [1] (IC50, HIV-RT catalysed incorporation of [3H]dATP / polyrU.dA, substrate [3H]dATP, template/primer poly rU.oligo dA); > 560 µM in data set [1] (IC50, HIV-RT catalysed incorporation of [3H]dCTP / polyrI.dC, substrate [3H]dCTP, template/primer poly rI.oligo dC); ≥ 560 µM in data set [1] (IC50, HIV-RT catalysed incorporation of [3H]dTTP / polyrA.dT, substrate [3H]dTTP, template/primer poly rA.oligo dT). In data set [1] ([3H]dATP, poly rU/oligo dA, 11a and 11b at 200 μg/mL), the “inhibition of incorporation of [3H]dATP in poly rU/oligo dA” value is “potent inhibitor”. In addition, in data set [2], the “degradation of stored sample” value is listed as ~10%.
